According to PubChem BioAssay AID1963426 (Molecular Pharmacology Branch, DTP, NCI, 2024):
Values belong to the compound of their own block, whether it stands above or below them.

Test system: 186277-243-T-J2-PDC complex spheroid growth, % test/control
Assay: Anticancer human tumor 186277-243-T-J2-PDC patient-derived colon adenocarcinoma cell line growth inhibition [Asc]
Details: for IC50: curve of first compound; for viability, T/C: stronger effect = lower value
How it was run: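 Stromal components (HUVEC and hMSC) are co-assembled with the cancer cells into multicellular spheroids. Drugs are then added singly or paired, at concentrations falling by half-log increments from a clinically achievable maximum, capped at 10 microM without known Cmax.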
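Note: spheroids exposed to agents for 7 days.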
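Throughout, for viability, T/C: 100% = DMSO vehicle control wells.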

IC50 (second compound 0.03 µM): > 1000 nM
IC50 (second compound 0.0949 µM): > 1000 nM
IC50 (second compound 0.3 µM): > 1000 nM
IC50 (second compound 0.949 µM): 415 nM
IC50 (second compound 3 µM): < 3.16 nM
Compound: CNC(C)C(=O)NC1CN(S(=O)(=O)c2cccc(S(=O)(=O)N3CCC4CCC(C(=O)NC(c5ccccc5)c5ccccc5)N4C(=O)C(NC(=O)C(C)NC)C3)c2)CCC2CCC(C(=O)NC(c3ccccc3)c3ccccc3)N2C1=O (stereo not given) + CCN1C(C(=O)NC23CCC(C(=O)O)(CC2)CC3)C(c2cccc(Cl)c2F)C2(C(=O)Nc3cc(Cl)ccc32)C12CCCCC2
viability, T/C (second compound 0.03 µM, first compound 0.00316 µM): 101%
viability, T/C (second compound 0.03 µM, first compound 0.01 µM): 131%
viability, T/C (second compound 0.03 µM, first compound 0.0316 µM): 113%
viability, T/C (second compound 0.03 µM, first compound 0.1 µM): 102%
viability, T/C (second compound 0.03 µM, first compound 0.316 µM): 113%
viability, T/C (second compound 0.03 µM, first compound 1 µM): 112%
viability, T/C (second compound 0.0949 µM, first compound 0.00316 µM): 115%
viability, T/C (second compound 0.0949 µM, first compound 0.01 µM): 114%
viability, T/C (second compound 0.0949 µM, first compound 0.0316 µM): 111%
viability, T/C (second compound 0.0949 µM, first compound 0.1 µM): 94.9%
viability, T/C (second compound 0.0949 µM, first compound 0.316 µM): 82.5%
viability, T/C (second compound 0.0949 µM, first compound 1 µM): 84.9%
viability, T/C (second compound 0.3 µM, first compound 0.00316 µM): 73.6%
viability, T/C (second compound 0.3 µM, first compound 0.01 µM): 79.6%
viability, T/C (second compound 0.3 µM, first compound 0.0316 µM): 87%
viability, T/C (second compound 0.3 µM, first compound 0.1 µM): 77.2%
viability, T/C (second compound 0.3 µM, first compound 0.316 µM): 77.2%
viability, T/C (second compound 0.3 µM, first compound 1 µM): 56.6%
viability, T/C (second compound 0.949 µM, first compound 0.00316 µM): 60.8%
viability, T/C (second compound 0.949 µM, first compound 0.01 µM): 54.8%
viability, T/C (second compound 0.949 µM, first compound 0.0316 µM): 56.7%
viability, T/C (second compound 0.949 µM, first compound 0.1 µM): 55.7%
viability, T/C (second compound 0.949 µM, first compound 0.316 µM): 55.6%
viability, T/C (second compound 0.949 µM, first compound 1 µM): 32.4%
viability, T/C (second compound 3 µM, first compound 0.00316 µM): 36.9%
viability, T/C (second compound 3 µM, first compound 0.01 µM): 37.6%
viability, T/C (second compound 3 µM, first compound 0.0316 µM): 36.2%
viability, T/C (second compound 3 µM, first compound 0.1 µM): 31.5%
viability, T/C (second compound 3 µM, first compound 0.316 µM): 29.6%
viability, T/C (second compound 3 µM, first compound 1 µM): 28.8%

IC50 (second compound 0.01 µM): > 1000 nM
IC50 (second compound 0.0316 µM): > 1000 nM
IC50 (second compound 0.1 µM): > 1000 nM
IC50 (second compound 0.316 µM): > 1000 nM
IC50 (second compound 1 µM): > 1000 nM
Compound: CCN1CCN(Cc2ccc(Nc3ncc(F)c(-c4cc(F)c5nc(C)n(C(C)C)c5c4)n3)nc2)CC1 + CNC(C)C(=O)NC1CN(S(=O)(=O)c2cccc(S(=O)(=O)N3CCC4CCC(C(=O)NC(c5ccccc5)c5ccccc5)N4C(=O)C(NC(=O)C(C)NC)C3)c2)CCC2CCC(C(=O)NC(c3ccccc3)c3ccccc3)N2C1=O
viability, T/C (second compound 0.01 µM, first compound 0.00316 µM): 85.5%
viability, T/C (second compound 0.01 µM, first compound 0.01 µM): 110%
viability, T/C (second compound 0.01 µM, first compound 0.0316 µM): 109%
viability, T/C (second compound 0.01 µM, first compound 0.1 µM): 129%
viability, T/C (second compound 0.01 µM, first compound 0.316 µM): 123%
viability, T/C (second compound 0.01 µM, first compound 1 µM): 114%
viability, T/C (second compound 0.0316 µM, first compound 0.00316 µM): 111%
viability, T/C (second compound 0.0316 µM, first compound 0.01 µM): 90.2%
viability, T/C (second compound 0.0316 µM, first compound 0.0316 µM): 114%
viability, T/C (second compound 0.0316 µM, first compound 0.1 µM): 114%
viability, T/C (second compound 0.0316 µM, first compound 0.316 µM): 143%
viability, T/C (second compound 0.0316 µM, first compound 1 µM): 120%
viability, T/C (second compound 0.1 µM, first compound 0.00316 µM): 112%
viability, T/C (second compound 0.1 µM, first compound 0.01 µM): 120%
viability, T/C (second compound 0.1 µM, first compound 0.0316 µM): 118%
viability, T/C (second compound 0.1 µM, first compound 0.1 µM): 132%
viability, T/C (second compound 0.1 µM, first compound 0.316 µM): 143%
viability, T/C (second compound 0.1 µM, first compound 1 µM): 107%
viability, T/C (second compound 0.316 µM, first compound 0.00316 µM): 107%
viability, T/C (second compound 0.316 µM, first compound 0.01 µM): 108%
viability, T/C (second compound 0.316 µM, first compound 0.0316 µM): 126%
viability, T/C (second compound 0.316 µM, first compound 0.1 µM): 131%
viability, T/C (second compound 0.316 µM, first compound 0.316 µM): 134%
viability, T/C (second compound 0.316 µM, first compound 1 µM): 110%
viability, T/C (second compound 1 µM, first compound 0.00316 µM): 120%
viability, T/C (second compound 1 µM, first compound 0.01 µM): 113%
viability, T/C (second compound 1 µM, first compound 0.0316 µM): 118%
viability, T/C (second compound 1 µM, first compound 0.1 µM): 138%
viability, T/C (second compound 1 µM, first compound 0.316 µM): 148%
viability, T/C (second compound 1 µM, first compound 1 µM): 120%
